In patent US12358915B2, “METTL3 inhibitory compounds” (STORM THERAPEUTICS LTD., priority 2019, dated 2025):
Like-named read-outs stand apart in the source and are kept apart here.

Legend:
[1] = test system: MOLM-13 cells; assay: MOLM13 CTG - analysis of cell proliferation (Cell Titre Glo); type: cell-based; details: Homo sapiens, geometric mean, read-out: CTG MOLM13 cells IC50 GEOMEAN
Experimental: MOLM-13 or MOLM-14 cells were plated, in suspension, in 24 well tissue culture plates at final concentration of 200,000/ml, with or without 50 ng/ml IFNγ. […] Cells were incubated for 4 days at 37° C. at which point 600 μl of cell suspension was removed for Mass spectrometry analysis of m6A. 600 μl of fresh media containing the appropriate concentration of METTL3 inhibitor/IFNγ was added to remaining cell suspensions. Cells where then cultured for a further 7 days, cell suspension was sampled for analysis of proliferation and Cell surface markers periodically.
At regular time points (4, 5, 6 &7) days cells were mixed to maintain a homogenous cell suspension. 25 μl of this cell suspension was removed and added to a white 384 well plate, 25 μl of Cell Titre Glo reagent (Promega) was added, and incubated for 10 mins at room temperature before measurement of luminescence intensity, as per the manufacturers instructions.

[2] = molecular target: T1, METTL3/14 (Homo sapiens, UniProt Q86U44); assay: METTL3/14 methyltransferase assay (METTL3_14 RFMS, RapidFire mass spectrometry); type: biochemical; details: read-out: METTL3_14 RFMS IC50;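 note: recombinant His-tagged METTL3 with FLAG-tagged METTL14 from baculovirus, SAH product quantified by mass spectrometry against isotope-labelled internal standards, 60 min at room temperature, scaled between no-RNA and DMSO-only wells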
T1 construct: The enzyme used was full-length his-tagged METTL3; His; made in house

[3] = 5 nM METTL3/14, 0.2 μM RNA substrate, 0.5 μM SAM, lower limit of the assay IC50=5 nM, Compounds 266-351
[4] = 5 nM METTL3/14, 0.2 μM RNA substrate, 0.5 μM SAM, lower limit of the assay IC50=5 nM, Compounds 63-265

T1 sequence (Q86U44 whole entry): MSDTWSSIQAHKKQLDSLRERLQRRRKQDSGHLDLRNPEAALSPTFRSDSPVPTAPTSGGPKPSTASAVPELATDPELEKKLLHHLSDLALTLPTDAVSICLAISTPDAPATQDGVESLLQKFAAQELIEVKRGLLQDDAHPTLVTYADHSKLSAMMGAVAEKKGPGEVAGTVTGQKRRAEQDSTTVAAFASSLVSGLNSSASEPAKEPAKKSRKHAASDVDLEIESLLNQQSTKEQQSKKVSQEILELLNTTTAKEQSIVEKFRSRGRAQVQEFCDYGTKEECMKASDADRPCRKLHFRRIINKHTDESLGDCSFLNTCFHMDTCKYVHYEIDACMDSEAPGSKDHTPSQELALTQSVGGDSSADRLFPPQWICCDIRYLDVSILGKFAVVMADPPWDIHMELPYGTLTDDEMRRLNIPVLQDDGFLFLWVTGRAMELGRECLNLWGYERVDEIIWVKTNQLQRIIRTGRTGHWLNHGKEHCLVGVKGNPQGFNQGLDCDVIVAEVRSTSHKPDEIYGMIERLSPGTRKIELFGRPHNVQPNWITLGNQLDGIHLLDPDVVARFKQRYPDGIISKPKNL
T1 sequence (Q9HCE5 whole entry partner): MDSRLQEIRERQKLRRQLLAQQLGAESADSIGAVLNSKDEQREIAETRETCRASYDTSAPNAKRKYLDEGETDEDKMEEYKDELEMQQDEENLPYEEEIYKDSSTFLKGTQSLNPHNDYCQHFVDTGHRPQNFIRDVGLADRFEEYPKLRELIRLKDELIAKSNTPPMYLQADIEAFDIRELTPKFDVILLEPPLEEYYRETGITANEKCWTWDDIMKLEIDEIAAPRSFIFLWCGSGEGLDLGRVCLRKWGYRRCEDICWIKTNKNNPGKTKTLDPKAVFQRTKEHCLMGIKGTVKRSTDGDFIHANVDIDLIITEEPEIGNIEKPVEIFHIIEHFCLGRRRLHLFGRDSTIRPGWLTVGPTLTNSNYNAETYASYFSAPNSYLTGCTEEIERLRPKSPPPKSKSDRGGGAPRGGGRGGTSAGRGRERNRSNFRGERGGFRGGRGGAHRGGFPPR

An IC50 [1] of 9020 nM and an IC50 [2, 3] of 27.7 nM were found for `COC1(CNCc2ccc3nc(CNC(=O)c4cc(=O)n5ccccc5n4)cn3c2)CCC1` [Compound 273, N-[[6-[[(1-methoxycyclobutyl)methylamino]methyl]imidazo[1,2-a]pyridin-2-yl]methyl]-4-oxo-pyrido[1,2-a]pyrimidine-2-carboxamide] in this work.
An IC50 [1] of no less than 30000 nM and an IC50 [2] of 48.5 nM were found for `O=C(NCc1cn2cc(CNCC34CC(C(F)(F)F)(C3)C4)ccc2n1)c1cc(=O)n2ccccc2n1` [Compound 87, 4-oxo-N-({6-[({[3-(trifluoromethyl)bicyclo[1.1.1]pentan-1-yl]methyl}amino)methyl]imidazo[1,2-a]pyridin-2-yl}methyl)-4H-pyrido [1,2-a]pyrimidine-2-carboxamide] in this work.
An IC50 [1] of 7190 nM and an IC50 [2, 3] of 20 nM were found for `CCC(C)(C)CNCc1ccc2nc(CNC(=O)c3cc(=O)n4ccccc4n3)cn2c1` [Compound 292, N-[[6-[(2,2-dimethylbutylamino)methyl]imidazo[1,2-a]pyridin-2-yl]methyl]-4-oxo-pyrido[1,2-a]pyrimidine-2-carboxamide] in this work.
An IC50 [1] of 1480 nM and an IC50 [2, 4] of 8.14 nM were found for `Brc1cc(-c2cn(Cc3cn4cc(CNCC5CCCCC5)ccc4n3)nn2)c2cn[nH]c2c1` [Example 226, [(2-{[4-(6-bromo-1H-indazol-4-yl)-1H-1,2,3-triazol-1-yl]methyl}imidazo[1,2-a]pyridin-6-yl)methyl](cyclohexylmethyl)amine] in this work.
An IC50 [1] of 4120 nM and an IC50 [2, 4] of 10.6 nM were found for `O=C(NCc1cn2cc(CNCC3CC(F)(F)C3)ccc2n1)c1cc(=O)n2ccccc2n1` [Compound 83, N-{[6-({[(3,3-difluoro-cyclobutyl)methyl]amino}methyl)imidazo[1,2-a]pyridin-2-yl]methyl}-4-oxo-4H-pyrido [1,2-a]pyrimidine-2-carboxamide] in this work.
An IC50 [1] of 8360 nM and an IC50 [2, 3] of 19.3 nM were found for `Clc1ccc(-c2cn(Cc3cn4cc(CNCC5CCC5)ccc4n3)nn2)c2cn[nH]c12` [Example 315, 1-[2-[[4-(7-chloro-1H-indazol-4-yl)triazol-1-yl]methyl]imidazo[1,2-a]pyridin-6-yl]-N-(cyclobutylmethyl)methanamine] in this work.
An IC50 [1] of 3930 nM and an IC50 [2, 3] of 9.46 nM were found for `OC1(CNCc2ccc3nc(Cn4cc(-c5ccc(F)c6[nH]ncc56)nn4)cn3c2)CCCCC1` [Example 306, 1-[[[2-[[4-(7-fluoro-1H-indazol-4-yl)triazol-1-yl]methyl]imidazo[1,2-a]pyridin-6-yl]methylamino]methyl]cyclohexanol] in this work.
An IC50 [1] of 2790 nM and an IC50 [2, 4] of 207 nM were found for `OCc1ccc2nc(Cn3cc(-c4cc(Br)cc5[nH]ncc45)nn3)cn2c1` [Example 253, (2-{[4-(6-bromo-1H-indazol-4-yl)-1H-1,2,3-triazol-1-yl]methyl}imidazo[1,2-a]pyridin-6-yl)methanol] in this work.
An IC50 [1] of 8730 nM and an IC50 [2, 4] of 69.1 nM were found for `O=C(NCc1cn2cc(CN3CCCCC3)ccc2n1)c1cc(=O)n2ccccc2n1` [Compound 104, 4-oxo-N-({6-[(piperidin-1-yl)methyl]imidazo[1,2-a]pyridin-2-yl}methyl)-4H-pyrido[1,2-a] pyrimidine-2-carboxamide] in this work.
An IC50 [1] of 2760 nM and an IC50 [2, 3] of 6.16 nM were found for `Fc1cc(-c2cn(Cc3cn4cc(CNCC5CCCCC5)ccc4n3)nn2)c2cn[nH]c2c1` [Example 320, N-(cyclohexylmethyl)-1-[2-[[4-(6-fluoro-1H-indazol-4-yl)triazol-1-yl]methyl]imidazo[1,2-a]pyridin-6-yl]methanamine] in this work.
An IC50 [1] of 6710 nM and an IC50 [2, 3] of 18.4 nM were found for `O=c1cc(-c2cn(Cc3cn4cc(CNCC5CCC5)ccc4n3)nn2)nc2ccccn12` [Example 342, 2-[1-[[6-[(cyclobutylmethylamino)methyl]imidazo[1,2-a]pyridin-2-yl]methyl]triazol-4-yl]pyrido[1,2-a]pyrimidin-4-one] in this work.
An IC50 [1] of 6040 nM and an IC50 [2, 4] of 163 nM were found for `CC(C)(NCc1ccc2nc(CNC(=O)c3cc(=O)n4ccccc4n3)cn2c1)c1ccccc1` [Compound 78, 4-oxo-N-[(6-{[(2-phenylpropan-2-yl)amino]methyl}imidazo[1,2-a]pyridin-2-yl)methyl]-4H-pyrido[1,2-a]pyrimidine-2-carboxamide] in this work.
An IC50 [1] of 2800 nM and an IC50 [2, 4] of 244 nM were found for `CN(Cc1ccc2nc(CNC(=O)c3cc(=O)n4ccccc4n3)cn2c1)CC1CCCCC1` [Compound 114, N-[(6-{[(cyclohexyl-methyl)(methyl)amino]methyl}imidazo [1,2-a]pyridin-2-yl)methyl]-4-oxo-4H-pyrido [1,2-a]pyrimidine-2-carboxamide] in this work.
An IC50 [1] of no less than 30000 nM and an IC50 [2, 3] of 6.95 nM were found for `Oc1cc(-c2cn(Cc3cn4cc(CNCC5(O)CCC5)ccc4n3)nn2)c2cn[nH]c2c1` [Example 267, 4-[1-[[6-[[(1-hydroxycyclobutyl)methylamino]methyl]imidazo[1,2-a]pyridin-2-yl]methyl]triazol-4-yl]-1H-indazol-6-ol] in this work.
An IC50 [1] of 1930 nM and an IC50 [2, 4] of 12.7 nM were found for `c1cc(-c2cn(Cc3cn4cc(CNCC5CCCCC5)ccc4n3)nn2)c2cn[nH]c2c1` [Compound 248, (cyclohexylmethyl)[(2-{[4-(1H-indazol-4-yl)-1H-1,2,3-triazol-1-yl]methyl}imidazo[1,2-a]pyridin-6-yl)methyl]amine] in this work.
An IC50 [1] of 11100 nM and an IC50 [2] of no more than 4.23 nM were found for `Oc1cc(-c2cn(Cc3cn4cc(CNCC5CCC5)ccc4n3)nn2)c2cn[nH]c2c1` [Example 266, 4-[1-[[6-[(cyclobutylmethylamino)methyl]imidazo[1,2-a]pyridin-2-yl]methyl]triazol-4-yl]-1H-indazol-6-ol] in this work.
An IC50 [1] of no less than 30000 nM and an IC50 [2, 3] of 112 nM were found for `CN(C)C(=O)c1cc(-c2cn(Cc3cn4cc(CNCC5CCC5)ccc4n3)nn2)c2cn[nH]c2c1` [Example 299, 4-[1-[[6-[(cyclobutylmethylamino)methyl]imidazo[1,2-a]pyridin-2-yl]methyl]triazol-4-yl]-N,N-dimethyl-1H-indazole-6-carboxamide] in this work.
An IC50 [1] of 5610 nM and an IC50 [2, 3] of 11.4 nM were found for `OC1(CNCc2ccc3nc(Cn4cc(-c5ccc(F)c6[nH]ncc56)nn4)cn3c2)CCC1` [Example 308, 1-[[[2-[[4-(7-fluoro-1H-indazol-4-yl)triazol-1-yl]methyl]imidazo[1,2-a]pyridin-6-yl]methylamino]methyl]cyclobutanol] in this work.
An IC50 [1] of 714 nM and an IC50 [2, 4] of 8.02 nM were found for `FC1(F)CC(CNCc2ccc3nc(Cn4cc(-c5cc(Br)cc6[nH]ncc56)nn4)cn3c2)C1` [Example 252, [(2-{[4-(6-bromo-1H-indazol-4-yl)-1H-1,2,3-triazol-1-yl]methyl}imidazo[1,2-a]pyridin-6-yl)methyl][(3,3-difluorocyclobutyl)methyl]amine] in this work.
An IC50 [1] of 10200 nM and an IC50 [2, 4] of 37.9 nM were found for `CC1(F)CCN(Cc2ccc3nc(CNC(=O)c4cc(=O)n5ccccc5n4)cn3c2)CC1` [Compound 207, N-({6-[(4-fluoro-4-methylpiperidin-1-yl)methyl]imidazo[1,2-a]pyridin-2-yl}methyl)-4-oxo-4H-pyrido [1,2-a]pyrimidine-2-carboxamide] in this work.
An IC50 [1] of 7500 nM and an IC50 [2, 3] of 14.5 nM were found for `c1cc2[nH]ncc2c(-c2cn(Cc3cn4cc(CNCC5CCCCC5)ccc4n3)nn2)n1` [Example 325, N-(cyclohexylmethyl)-1-[2-[[4-(1H-pyrazolo[4,3-c]pyridin-4-yl)triazol-1-yl]methyl]imidazo[1,2-a]pyridin-6-yl]methanamine] in this work.
An IC50 [1] of 7340 nM and an IC50 [2, 4] of 15.8 nM were found for `O=C(NCc1cn2cc(CNCC3CCC3F)ccc2n1)c1cc(=O)n2ccccc2n1` (centres unmarked) [Compound 214, N-{[6-({[(2-fluorocyclobutyl)methyl]amino}methyl)imidazo [1,2-a]pyridin-2-yl]methyl}-4-oxo-4H-pyrido [1,2-a]pyrimidine-2-carboxamide] in this work.
An IC50 [1] of 2930 nM and an IC50 [2, 4] of 7.58 nM were found for `O=C(NCc1cn2cc(CNC[C@H]3C[C@H](F)C3)ccc2n1)c1cc(=O)n2ccccc2n1` [Compound 217, 4-oxo-N-({6-[({[(1r,3r)-3-fluorocyclo-butyl]methyl}amino)methyl]imidazo[1,2-a]pyridin-2-yl}methyl)-4H-pyrido[1,2-a] pyrimidine-2-carboxamide] in this work.
An IC50 [1] of 3280 nM and an IC50 [2, 3] of 8.86 nM were found for `c1cc2[nH]ncc2c(-c2cn(Cc3cn4cc(CNCC5CCC5)ccc4n3)nn2)n1` [Example 324, N-(cyclobutylmethyl)-1-[2-[[4-(1H-pyrazolo[4,3-c]pyridin-4-yl)triazol-1-yl]methyl]imidazo[1,2-a]pyridin-6-yl]methanamine] in this work.
An IC50 [1] of 3510 nM and an IC50 [2, 4] of 14.9 nM were found for `O=C(NCc1cn2cc(CN3CCC4(CC3)CC4)ccc2n1)c1cc(=O)n2ccccc2n1` [Compound 216, N-{[6-({6-azaspiro[2.5]octan-6-yl}methyl)imidazo [1,2-a]pyridin-2-yl]methyl}-4-oxo-4H-pyrido [1,2-a]pyrimidine-2-carboxamide] in this work.
An IC50 [1] of no less than 30000 nM and an IC50 [2, 3] of 511 nM were found for `O=C(c1cc(-c2cn(Cc3cn4cc(CNCC5CCC5)ccc4n3)nn2)c2cn[nH]c2c1)N1CCOCC1` [Example 300, [4-[1-[[6-[(cyclobutylmethylamino)methyl]imidazo[1,2-a]pyridin-2-yl]methyl]triazol-4-yl]-1H-indazol-6-yl]-morpholino-methanone] in this work.
An IC50 [1] of 5020 nM and an IC50 [2, 4] of 20.3 nM were found for `O=C(NCc1cn2cc(CNCC3CCCC3)ccc2n1)c1cc(=O)n2ccccc2n1` [Compound 210, N-[(6-{[(cyclopentyl-methyl)amino]methyl}imidazo [1,2-a]pyridin-2-yl)methyl]-4-oxo-4H-pyrido [1,2-a]pyrimidine-2-carboxamide] in this work.
An IC50 [1] of 4720 nM and an IC50 [2, 3] of 12.8 nM were found for `CC[C@H](C)CNCc1ccc2nc(CNC(=O)c3cc(=O)n4ccccc4n3)cn2c1` [Compound 293, N-[[6-[[[(2S)-2-methylbutyl]amino]methyl]imidazo[1,2-a]pyridin-2-yl]methyl]-4-oxo-pyrido[1,2-a]pyrimidine-2-carboxamide] in this work.
